Measured values published in patent US20170055529A1, “BROAD SPECTRUM WEED CONTROL IN FLOODED RICE BY IN-WATER APPLICATION OF AUXIN HERBICIDES” (priority 2015, published 2017).
Marks after values point to notes of the source that are not given here.

Tests used:
Assay type in all cases: in vivo
[1] = system: 'M202' rice (Japonica rice variety from California, USA); test: Greenhouse in-water application, transplanted paddy rice (small pots), crop injury
Description: (§1) Weed seeds of the desired test plant species were planted in puddled soil (mud) prepared by mixing a non-sterilized mineral soil (approximately 50 percent silt, 26 percent clay, and 24 percent sand, with a pH of about 7.6 and an organic matter content of about 2.9 percent) and water at a 1:1 volumetric ratio. The prepared mud was dispensed in 365 milliliter (mL) aliquots into 16-ounce (oz.) non-perforated plastic pots with a surface area of 86.59 square centimeters (cm^2) leaving a headspace of 3 centimeters (cm) in each pot. Mud was allowed to dry overnight prior to planting or transplanting. Rice seeds were planted in Sun Gro® MetroMix® 360 planting mixture, which typically has a pH of 6.0 to 6.8 and an organic matter content of about 30 percent, in plastic plug trays. Seedlings at the second or third leaf stage of growth were transplanted into 840 mL of mud contained in 32-oz. non-perforated plastic pots with a surface area of 86.59 cm^2 four days prior to herbicide application. The paddy was created by filling the headspace of the pots with 2.5 to 3 cm of water. When required to ensure good germination and healthy plants, a fungicide treatment and/or other chemical or physical treatment was applied. The plants were grown for 4-22 days (d) in a greenhouse with an approximate 14-hour (h) photoperiod which was maintained at about 29° C. during the day and 26° C. during the night. Nutrients were added as Osmocote® (19:6:12, Nitrogen:Phosphorus:Potassium (N:P:K)+minor nutrients) at 2 g per 16 oz. pot and 4 g per 32 oz. pot. Water was added on a regular basis to maintain the paddy flood, and supplemental lighting was provided with overhead metal halide 1000-Watt lamps as necessary. The plants were used for testing when they reached the second or third true leaf stage.
(§2) Triclopyr triethylammonium (as Grandstand® R, 359.5 grams acid equivalent per liter (g ae/L)); fluroxypyr methylheptyl ester (meptyl or MHE, as Starane™, 179.8 g ae/L); 2,4-dichlorophenoxyacetic acid dimethylammonium (2,4-D DMA, as Weedar® 64, 455.4 g ae/L); and penoxsulam (as Grasp® SC, 239.7 grams active ingredient per liter (g ai/L) were used. Measured amounts of formulated compounds were placed in individual 120 mL glass vials and were dissolved in 40 mL of an aqueous mixture containing 1.25% volume per volume (v/v) Agri-Dex® crop oil concentrate. Generally, multiple concentrations were tested utilizing the same stock solution. Applications were made by injecting an appropriate amount of the application solution into the aqueous layer of the paddy. Control plants were treated in the same manner with the solvent blank.
(§3) The treated plants and control plants were placed in a greenhouse as described above and water was added as needed to maintain a paddy flood. After approximately 3 weeks the condition of the test plants, compared with that of the untreated plants, was determined visually and scored on a scale of 0 to 100 percent where 0 corresponds to no injury or growth reduction and 100 corresponds to complete kill.

[2] = system: 'Wells' rice (Medium grain rice variety from Arkansas, USA); test: as above
Description: as §1, §2, §3

[3] = system: ORYSP = Oryza sativa Japonica (transplanted paddy rice); test: Field trial in-water application, crop tolerance
Method: Field trials were conducted in rice using standard herbicide small plot research methodology. Plot size was 2 square meters (m^2) using 1.6 meter (m) diameter rings placed into the rice paddy soil with capability for flooding to maintain good rice cultural practices and rice growing conditions. There were 3 replicates per treatment. Rice was Japonica type that was hand-transplanted into the saturated soil in the rings as per normal cultural practices. The transplanted rice crop was grown using normal cultural practices for fertilization, watering, flooding and maintenance to ensure good growth of the crop and the weeds under transplanted rice conditions in Taiwan.
Treatments were applied by mixing the treatments with deionized water just prior to water-injection application by hand to multiple sides in the ring plots. For each 2 m^2 plot, 50 mL deionized water was mixed with the appropriate formulated product amounts to treat 2 m^2 to achieve the desired application rates based on unit area of application (hectare). Ring plot water depth was kept at 3 to 7 cm deep before and after water-injection application.
The rice and weeds were evaluated at 28 days after application (DAA). Triclopyr triethylammonium (as Garlon® 3 A, 360 g ae/L); fluroxypyr methylheptyl ester (meptyl or MHE, as Starane® Ultra, 333 g ae/L); 2,4-dichlorophenoxyacetic acid dimethylammonium (2,4-D AMINE, 400 g ae/L SL); penoxsulam (as Grasp® SC, 240 g ai/L); and bensulfuron-methyl (as LONDAX® 10% WAY WP) were used.
The treated and control plots were rated at 28 days after application. Ratings were based on percent (%) visual weed control, where 0 corresponds to no control and 100 corresponds to complete control.

## CCCCCCC(C)OC(=O)COc1nc(F)c(Cl)c(N)c1Cl (stereo not drawn) [Fluroxypyr-meptyl (Starane ® Ultra), 1-methylheptyl 2-[(4-amino-3,5-dichloro-6-fluoro-2-pyridinyl)oxy]acetate]
[1]; 280 g ae/ha in-water
  Percent (%) Visual Injury Ratings - 20 DAA, M202′ Rice: 0%
[1]; 560 g ae/ha in-water
  Percent (%) Visual Injury Ratings - 20 DAA, M202′ Rice: 0%
[1]; 1120 g ae/ha in-water
  Percent (%) Visual Injury Ratings - 20 DAA, M202′ Rice: 35%
[2]; 280 g ae/ha in-water
  Percent (%) Visual Injury Ratings - 20 DAA, Wells′ Rice: 0%
[2]; 560 g ae/ha in-water
  Percent (%) Visual Injury Ratings - 20 DAA, Wells′ Rice: 0%
[2]; 1120 g ae/ha in-water
  Percent (%) Visual Injury Ratings - 20 DAA, Wells′ Rice: 10%
[3]; 140 g ae/ha in-water 10 DAT
  Percent (%) Visual Injury Ratings - 28 DAA, ORYSP: 0%
[3]; 280 g ae/ha in-water 10 DAT
  Percent (%) Visual Injury Ratings - 28 DAA, ORYSP: 0%
[3]; 560 g ae/ha in-water 10 DAT
  Percent (%) Visual Injury Ratings - 28 DAA, ORYSP: 0%

## O=C(O)COc1nc(Cl)c(Cl)cc1Cl [Triclopyr triethanolamine (Garlon ® 3A), triethylammonium 2[(3,5,6-trichloro-2-pyridinyl)oxy]acetate]
[1]; 280 g ae/ha in-water
  Percent (%) Visual Injury Ratings - 20 DAA, M202′ Rice: 0%
[1]; 560 g ae/ha in-water
  Percent (%) Visual Injury Ratings - 20 DAA, M202′ Rice: 0%
[1]; 1120 g ae/ha in-water
  Percent (%) Visual Injury Ratings - 20 DAA, M202′ Rice: 20%
[2]; 280 g ae/ha in-water
  Percent (%) Visual Injury Ratings - 20 DAA, Wells′ Rice: 0%
[2]; 560 g ae/ha in-water
  Percent (%) Visual Injury Ratings - 20 DAA, Wells′ Rice: 0%
[2]; 1120 g ae/ha in-water
  Percent (%) Visual Injury Ratings - 20 DAA, Wells′ Rice: 10%
[3]; 140 g ae/ha in-water 10 DAT
  Percent (%) Visual Injury Ratings - 28 DAA, ORYSP: 0%
[3]; 280 g ae/ha in-water 10 DAT
  Percent (%) Visual Injury Ratings - 28 DAA, ORYSP: 0%
[3]; 560 g ae/ha in-water 10 DAT
  Percent (%) Visual Injury Ratings - 28 DAA, ORYSP: 0%

## O=C(O)COc1ccc(Cl)cc1Cl [2,4-D DMA (Weedar ® 64), dimethylammonium 2-(2,4-dichlorophenoxy)acetate]
[1]; 280 g ae/ha in-water
  Percent (%) Visual Injury Ratings - 20 DAA, M202′ Rice: 0%
[1]; 560 g ae/ha in-water
  Percent (%) Visual Injury Ratings - 20 DAA, M202′ Rice: 0%
[1]; 1120 g ae/ha in-water
  Percent (%) Visual Injury Ratings - 20 DAA, M202′ Rice: 10* %
[2]; 280 g ae/ha in-water
  Percent (%) Visual Injury Ratings - 20 DAA, Wells′ Rice: 0%
[2]; 560 g ae/ha in-water
  Percent (%) Visual Injury Ratings - 20 DAA, Wells′ Rice: 0%
[2]; 1120 g ae/ha in-water
  Percent (%) Visual Injury Ratings - 20 DAA, Wells′ Rice: 0%
[3]; 140 g ae/ha in-water 10 DAT
  Percent (%) Visual Injury Ratings - 28 DAA, ORYSP: 0%
[3]; 280 g ae/ha in-water 10 DAT
  Percent (%) Visual Injury Ratings - 28 DAA, ORYSP: 0%
[3]; 560 g ae/ha in-water 10 DAT
  Percent (%) Visual Injury Ratings - 28 DAA, ORYSP: 0%
